In ChEMBL document CHEMBL3621083, “Dehydroabietylamine derivatives as multifunctional agents for the treatment of Alzheimer's disease” (Medchemcomm, 2014):
pIC50: −log10 of the molar value. Active and inactive are the calls of the source. The calls are words filed in the database; no cut-off is given here.

Tests used:
[1] = target: T1, Amyloid-beta precursor protein (Homo sapiens, UniProt P05067); experiment: Inhibition of amyloid beta-42 (unknown origin) self-mediated aggregation at 50 uM by thioflavin-T fluorescence assay
T1 sequence (P05067 whole entry): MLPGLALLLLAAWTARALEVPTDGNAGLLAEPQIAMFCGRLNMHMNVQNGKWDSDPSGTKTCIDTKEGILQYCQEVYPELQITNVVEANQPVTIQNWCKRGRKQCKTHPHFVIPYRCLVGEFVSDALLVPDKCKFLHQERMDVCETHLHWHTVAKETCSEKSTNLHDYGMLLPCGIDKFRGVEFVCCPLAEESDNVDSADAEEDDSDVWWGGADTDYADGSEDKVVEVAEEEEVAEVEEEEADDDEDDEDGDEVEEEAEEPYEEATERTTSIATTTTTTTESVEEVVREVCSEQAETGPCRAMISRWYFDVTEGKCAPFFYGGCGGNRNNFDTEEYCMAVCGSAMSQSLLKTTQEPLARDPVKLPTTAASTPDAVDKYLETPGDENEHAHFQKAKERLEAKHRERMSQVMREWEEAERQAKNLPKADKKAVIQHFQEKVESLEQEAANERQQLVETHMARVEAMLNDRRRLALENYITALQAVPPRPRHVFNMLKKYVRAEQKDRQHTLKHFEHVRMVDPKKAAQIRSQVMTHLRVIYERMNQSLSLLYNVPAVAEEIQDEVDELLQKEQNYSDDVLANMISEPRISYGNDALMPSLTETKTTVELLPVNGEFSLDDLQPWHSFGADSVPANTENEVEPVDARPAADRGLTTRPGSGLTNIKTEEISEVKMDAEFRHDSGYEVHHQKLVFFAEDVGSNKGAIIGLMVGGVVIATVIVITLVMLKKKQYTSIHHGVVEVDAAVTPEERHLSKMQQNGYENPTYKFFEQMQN

SH-SY5Y [2] = experiment: Anti-oxidative activity in human SH-SY5Y cells assessed as reduction of ROS generation at 10 uM using DCFH-DA; assay type: functional
[3] = target: T1, Amyloid-beta precursor protein; experiment: Inhibition of amyloid beta-42 (unknown origin) aging fibrils disaggregation at 50 uM by thioflavin-T fluorescence assay
SH-SY5Y [4] = experiment: Cytotoxicity against human SH-SY5Y cells assessed as cell viability at 10 uM after 48 hrs by MTT assay; assay type: cell-based
SH-SY5Y [5] = experiment: Neuroprotective activity in human SH-SY5Y cells assessed as protection against amyloid beta-42-induced cell death at 5 to 50 uM after 48 hrs by MTT assay (reference value: 50.02 +/- 4.98%); assay type: functional
SH-SY5Y [6] = experiment: Cytotoxicity against human SH-SY5Y cells assessed as cell viability at 1 to 50 uM after 48 hrs by MTT assay; assay type: cell-based
[7] = target: T1, Amyloid-beta precursor protein; experiment: Inhibition of swAPP-mediated amyloid beta-42 production in human HEK293 cells at 10 uM after 48 hrs by ELISA (reference value: 100 +/-3.45%); assay type: cell-based; design: scale not given: the % may be the effect or the level left
Caenorhabditis elegans [8] = experiment: Anti-Alzheimer's activity in Caenorhabditis elegans CL4176 expressing amyloid beta assessed as increase of average time of life expectancy at 500 uM (reference value: 46.9 +/- 0.54 hrs); assay type: functional
Caenorhabditis elegans [9] = experiment: Reduction of amyloid beta expression in Caenorhabditis elegans CL4176 at 10 to 50 uM by Western blot analysis; assay type: functional, organism-based
[10] = target: T1, Amyloid-beta precursor protein; experiment: Inhibition of fibrils formation in aggregated amyloid beta-42 (unknown origin) assessed as short fibril formation at 50 uM after 48 hrs by transmission electron microscopy analysis
Caenorhabditis elegans [11] = experiment: Anti-Alzheimer's activity in Caenorhabditis elegans CL4176 expressing amyloid beta assessed as increase of average time of life expectancy at 10 uM (reference value: 46.9 +/- 0.54 hrs); assay type: functional
Caenorhabditis elegans [12] = experiment: Anti-Alzheimer's activity in Caenorhabditis elegans CL4176 expressing amyloid beta assessed as increase of average time of life expectancy at 50 uM (reference value: 46.9 +/- 0.54 hrs); assay type: functional
Caenorhabditis elegans [13] = experiment: Anti-Alzheimer's activity in Caenorhabditis elegans CL4176 expressing amyloid beta assessed as increase of average time of life expectancy at 200 uM (reference value: 46.9 +/- 0.54 hrs); assay type: functional
[14] = target: T1, Amyloid-beta precursor protein; experiment: Inhibition of amyloid beta-42 (unknown origin) beta sheets structure formation at 40 uM after 48 hrs by circular dichroism spectra analysis
[15] = target: T1, Amyloid-beta precursor protein; experiment: Inhibition of amyloid beta-42 (unknown origin) aging fibrils disaggregation by thioflavin-T fluorescence assay
[16] = Cytotoxicity against human HEK293 cells expressing swAPP assessed as cell viability at 25 uM after 48 hrs by MTT assay; assay type: cell-based; conditions: read-out: Activity
[17] = target: T1, Amyloid-beta precursor protein; experiment: Inhibition of amyloid beta-42 (unknown origin) fibrils formation at 50 uM after 48 hrs by transmission electron microscopy analysis
[18] = target: T1, Amyloid-beta precursor protein; experiment: Increase of alpha-helics formation in amyloid beta-42 (unknown origin) at 40 uM after 48 hrs by circular dichroism spectra analysis
[19] = target: T1, Amyloid-beta precursor protein; experiment: Inhibition of amyloid beta-42 (unknown origin) self-mediated aggregation by thioflavin-T fluorescence assay
Caenorhabditis elegans [20] = experiment: Anti-Alzheimer's activity in Caenorhabditis elegans CL4176 assessed as delay in amyloid beta-induced paralysis at 10 to 50 uM after 36 hrs of amyloid beta expression; assay type: functional, organism-based
[21] = target: T1, Amyloid-beta precursor protein; experiment: Inhibition of swAPP-mediated amyloid beta-42 production in human HEK293 cells at 25 uM after 48 hrs by ELISA (reference value: 100 +/-3.45%); assay type: cell-based; design: scale not given: the % may be the effect or the level left
Caenorhabditis elegans [22] = experiment: Anti-Alzheimer's activity in Caenorhabditis elegans CL4176 assessed as delay in amyloid beta-induced paralysis at 500 uM after 36 hrs of amyloid beta expression; assay type: functional, organism-based

SMILES	inhibition [1]	inhibition (SH-SY5Y [2])	inhibition [3]	inhibition at 10 µM (SH-SY5Y [2])	other results
CC(=O)NC[C@]1(C)CCC[C@]2(C)c3ccc(C(C)C)cc3/C(=N/NC(=O)c3ccncc3)C[C@@H]12	inactive	inactive	inactive		
CC(=O)NC[C@]1(C)CCC[C@]2(C)c3ccc(C(C)C)cc3/C(=N/O)C[C@@H]12	inactive		inactive	41.2%	
CC(C)c1ccc2c(c1)CC[C@H]1[C@](C)(CNC(=O)c3cc(O)c(O)c(O)c3)CCC[C@]21C	74.6%		49%	50.8%	Activity (SH-SY5Y [4]): Non-toxic
CC(=O)NC[C@]1(C)CCC[C@]2(C)c3ccc(C(C)C)cc3/C(=N\NC(N)=S)C[C@@H]12	inactive	inactive	inactive		
CC(C)c1c(N)cc2c(c1[N+](=O)[O-])CC[C@H]1[C@](C)(CN)CCC[C@]21C	inactive	inactive	inactive		
CC(C)c1ccc2c(c1)C(=O)C[C@H]1[C@](C)(CN)CCC[C@]21C	inactive	inactive	inactive		
CC(=O)Oc1cc(C(=O)NC[C@]2(C)CCC[C@]3(C)c4ccc(C(C)C)cc4CC[C@@H]23)cc(OC(C)=O)c1OC(C)=O	55.3%		37.6%	41.8%	Activity (SH-SY5Y [4]): Non-toxic
CC(C)c1ccc2c(c1)C(=O)C[C@H]1[C@](C)(CNC(=O)C(F)(F)F)CCC[C@]21C	inactive		inactive	19.8%	
CC(=O)NC[C@]1(C)CCC[C@]2(C)c3ccc(C(C)C)cc3/C(=N\NC(N)=O)C[C@@H]12	inactive		inactive	13.3%	
CC(C)c1c(NC(=O)/C=C/c2ccc(O)c(O)c2)cc2c(c1NC(=O)/C=C/c1ccc(O)c(O)c1)CC[C@H]1[C@](C)(CNC(=O)/C=C/c3ccc(O)c(O)c3)CCC[C@]21C	93.3%		82.5%	53.9%	Activity (SH-SY5Y [4]): Non-toxic
CC(=O)NC[C@]1(C)CCC[C@]2(C)c3ccc(C(C)C)cc3/C(=N/NC(C)=O)C[C@@H]12	inactive	inactive	inactive		
CC(C)c1c(NC(=O)/C=C/c2ccc(O)c(O)c2)cc2c(c1[N+](=O)[O-])CC[C@H]1[C@](C)(CNC(=O)/C=C/c3ccc(O)c(O)c3)CCC[C@]21C	92%		82.8%	62.4%	Activity (SH-SY5Y [5]): 53.5%; Activity (SH-SY5Y [6]): Non-toxic; Activity [7]: 45.6%; Time (Caenorhabditis elegans [8]): 44.7 h; Activity (SH-SY5Y [4]): Non-toxic; Activity (Caenorhabditis elegans [9]): Active; inhibition [10]: Active; Time (Caenorhabditis elegans [11]): 48.2 h; Time (Caenorhabditis elegans [12]): 50.5 h; Time (Caenorhabditis elegans [13]): 48.8 h; inhibition [14]: Active; inhibition [15]: Dose-dependent effect; viability at 48 h, 25 µM [16]: > 90%; inhibition [17]: Active; Activity [18]: Active; pIC50 [19]: 5.40; Activity (Caenorhabditis elegans [20]): Active; Activity [21]: 10.4%
COc1cc(/C=C/C(=O)CC(=O)/C=C/c2ccc(O)c(OC)c2)ccc1O [CURCUMIN]				37.9%	Activity (SH-SY5Y [4]): Non-toxic
C/C=C1\[C@H]2C=C(C)C[C@]1(N)c1ccc(=O)[nH]c1C2 [HUPERZINE A]					Activity (Caenorhabditis elegans [22]): Active; Time (Caenorhabditis elegans [8]): 48.3 h
CC(C)c1ccc2c(c1)CC[C@H]1[C@](C)(CN)CCC[C@]21C	inactive	inactive	inactive		
CC(=O)NC[C@]1(C)CCC[C@]2(C)c3ccc(C(C)C)cc3/C(=N/OC(=O)c3ccc(Cl)cc3)C[C@@H]12	inactive		inactive	10.4%	
CC(C)c1ccc2c(c1)/C(=N/NC(=O)c1ccncc1)C[C@H]1[C@](C)(CNC(=O)C(F)(F)F)CCC[C@]21C	inactive	inactive	inactive		
CC(C)c1ccc2c(c1)/C(=N/O)C[C@H]1[C@](C)(CNC(=O)C(F)(F)F)CCC[C@]21C	inactive		inactive	34.1%	
CC(=O)Oc1cc(/C=N\C[C@]2(C)CCC[C@]3(C)c4ccc(C(C)C)cc4CC[C@@H]23)cc(OC(C)=O)c1OC(C)=O	20.6%		8.93%	48.2%	
CC(C)c1ccc2c(c1)CC[C@H]1[C@](C)(C/N=C\c3ccc(O)cc3O)CCC[C@]21C	24.5%		10.7%	26.1%	Activity (SH-SY5Y [4]): Non-toxic
CC(C)c1c(N)cc2c(c1[N+](=O)[O-])CC[C@H]1[C@](C)(CNC(=O)c3ccc(O)c(O)c3)CCC[C@]21C	26.1%		14.2%	31.2%	
